The compounds below were run on HBV (assay: HBV replication inhibition assay (BDNA assay) in HepG2.2.15 cells). Settings: HBV replication assay (BDNA assay), HepG2.2.15 cells; read-out: DNA EC50.
Assay type: cell-based
Outline: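 HepG2.2.15 cells with stably integrated HBV were treated with serially diluted compounds at 0.5% DMSO for 6 days, with medium and compound refreshed at day 3. Encapsidated HBV DNA from DNase-treated supernatant was quantified by branched DNA assay. EC50 came from % inhibition versus DMSO, fitted non-linearly.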

Row | SMILES | EC50
1 | C[C@@H]1Cc2nn3c(c2CN1C(=O)Nc1ccnc(Br)c1F)C(=O)N(C)OC(COCC(F)F)C3 (stereo in doubt) [Compound 123_D2, (4R*,9R)—N-(2-bromo-3-fluoropyridin-4-yl)-4-((2,2-difluoroethoxy)methyl)-2,9-dimethyl-1-oxo-1,4,5,8,9,11-hexahydropyrido[4′,3′:3,4]pyrazolo[5,1-d][1,2,5]oxadiazepine-10(2H)-carboxamide] | 1 to 100 nM
2 | C[C@@H]1Cc2nn3c(c2CN1C(=O)Nc1ccc(F)c(C#N)c1)C(=O)N(C)OC(COCC(F)F)C3 (stereo in doubt) [Compound 124_D2, (4R*,9R)—N-(3-cyano-4-fluorophenyl)-4-((2,2-difluoroethoxy)methyl)-2,9-dimethyl-1-oxo-1,4,5,8,9,11-hexahydropyrido[4′,3′:3,4]pyrazolo[5,1-d][1,2,5]oxadiazepine-10(2H)-carboxamide] | 1 to 100 nM
3 | Cc1cc(NC(=O)N2Cc3c(nn4c3C(=O)N(C)OC(COCC(F)F)C4)C[C@H]2C)ccc1F (stereo in doubt) [Compound 125_D2, (4R*,9R)-4-((2,2-difluoroethoxy)methyl)-N-(4-fluoro-3-methylphenyl)-2,9-dimethyl-1-oxo-1,4,5,8,9,11-hexahydropyrido[4′,3′:3,4]pyrazolo[5,1-d][1,2,5]oxadiazepine-10(2H)-carboxamide] | 1 to 100 nM
4 | C[C@@H]1Cc2nn3c(c2CN1C(=O)Nc1ccc(F)c(C(F)(F)F)c1)C(=O)N(C)OC(COCC(F)F)C3 (stereo in doubt) [Compound 126_D1, (4S*,9R)-4-((2,2-difluoroethoxy)methyl)-N-(4-fluoro-3-(trifluoromethyl)phenyl)-2,9-dimethyl-1-oxo-1,4,5,8,9,11-hexahydropyrido[4′,3′:3,4]pyrazolo[5,1-d][1,2,5]oxadiazepine-10(2H)-carboxamide] | 100 to 500 nM
5 | C[C@@H]1Cc2nn3c(c2CN1C(=O)Nc1ccc(F)c(C(F)(F)F)c1)C(=O)N(C)OC(COCC(F)F)C3 (stereo in doubt) [Compound 126_D2, (4R*,9R)-4-((2,2-difluoroethoxy)methyl)-N-(4-fluoro-3-(trifluoromethyl)phenyl)-2,9-dimethyl-1-oxo-1,4,5,8,9,11-hexahydropyrido[4′,3′:3,4]pyrazolo[5,1-d][1,2,5]oxadiazepine-10(2H)-carboxamide] | 1 to 100 nM
6 | C[C@@H]1Cc2nn3c(c2CN1C(=O)Nc1ccc(F)c(C#N)c1F)C(=O)N(C)OC(C(=O)N(C)CC(F)F)C3 (stereo in doubt) [Compound 153_D1, (4S*,9R)—N10-(3-cyano-2,4-difluorophenyl)-N4-(2,2-difluoroethyl)-N4,2,9-trimethyl-1-oxo-1,4,5,8,9,11-hexahydropyrido[4′,3′:3,4]pyrazolo[5,1-d][1,2,5]oxadiazepine-4,10(2H)-dicarboxamide] | 100 to 500 nM
7 | C[C@@H]1Cc2nn3c(c2CN1C(=O)Nc1ccc(F)c(C#N)c1F)C(=O)N(C)OC(C(=O)N(C)CC(F)F)C3 (stereo in doubt) [Compound 153_D2, (4R*,9R)—N10-(3-cyano-2,4-difluorophenyl)-N4-(2,2-difluoroethyl)-N4,2,9-trimethyl-1-oxo-1,4,5,8,9,11-hexahydropyrido[4′,3′:3,4]pyrazolo[5,1-d][1,2,5]oxadiazepine-4,10(2H)-dicarboxamide] | 1 to 100 nM
8 | C[C@@H]1Cc2nn3c(c2CN1C(=O)Nc1cc(Cl)c(F)cc1F)C(=O)N(C)OC(C(=O)N(C)CC(F)F)C3 (stereo in doubt) [Compound 154_D1, (4S*,9R)—N10-(5-chloro-2,4-difluorophenyl)-N4-(2,2-difluoroethyl)-N4,2,9-trimethyl-1-oxo-1,4,5,8,9,11-hexahydropyrido[4′,3′:3,4]pyrazolo[5,1-d][1,2,5]oxadiazepine-4,10(2H)-dicarboxamide] | 500 to 1000 nM
9 | C[C@@H]1Cc2nn3c(c2CN1C(=O)Nc1cc(Cl)c(F)cc1F)C(=O)N(C)OC(C(=O)N(C)CC(F)F)C3 (stereo in doubt) [Compound 154_D2, (4R*,9R)—N10-(5-chloro-2,4-difluorophenyl)-N4-(2,2-difluoroethyl)-N4,2,9-trimethyl-1-oxo-1,4,5,8,9,11-hexahydropyrido[4′,3′:3,4]pyrazolo[5,1-d][1,2,5]oxadiazepine-4,10(2H)-dicarboxamide] | 1 to 100 nM
10 | C[C@@H]1Cc2nn3c(c2CN1C(=O)Nc1ccc(F)c(C#N)c1)C(=O)N(C)OC(C(=O)N(C)CC(F)F)C3 (stereo in doubt) [Compound 155_D1, (4S*,9R)—N10-(3-cyano-4-fluorophenyl)-N4-(2,2-difluoroethyl)-N4,2,9-trimethyl-1-oxo-1,4,5,8,9,11-hexahydropyrido[4′,3′:3,4]pyrazolo[5,1-d][1,2,5]oxadiazepine-4,10(2H)-dicarboxamide] | 500 to 1000 nM
11 | C[C@@H]1Cc2nn3c(c2CN1C(=O)Nc1ccc(F)c(C#N)c1)C(=O)N(C)OC(C(=O)N(C)CC(F)F)C3 (stereo in doubt) [Compound 155_D2, (4R*,9R)—N10-(3-cyano-4-fluorophenyl)-N4-(2,2-difluoroethyl)-N4,2,9-trimethyl-1-oxo-1,4,5,8,9,11-hexahydropyrido[4′,3′:3,4]pyrazolo[5,1-d][1,2,5]oxadiazepine-4,10(2H)-dicarboxamide] | 1 to 100 nM
12 | C[C@@H]1Cc2nn3c(c2CN1C(=O)Nc1ccc(F)c(C#N)c1)C(=O)N(C)OC(CNCC(F)F)C3 (stereo in doubt) [Compound 183_D2, (4R*,9R)—N-(3-cyano-4-fluorophenyl)-4-(((2,2-difluoroethyl)amino)methyl)-2,9-dimethyl-1-oxo-1,4,5,8,9,11-hexahydropyrido[4′,3′:3,4]pyrazolo[5,1-d][1,2,5]oxadiazepine-10(2H)-carboxamide] | 1 to 100 nM
13 | C[C@@H]1Cc2nn3c(c2CN1C(=O)Nc1ccc(F)c(Br)c1)C(=O)N(C)OC(CNCC(F)F)C3 (stereo in doubt) [Compound 184_D2, (4R*,9R)—N-(3-bromo-4-fluorophenyl)-4-(((2,2-difluoroethyl)amino)methyl)-2,9-dimethyl-1-oxo-1,4,5,8,9,11-hexahydropyrido[4′,3′:3,4]pyrazolo[5,1-d][1,2,5]oxadiazepine-10(2H)-carboxamide] | 1 to 100 nM

Same assay, conditions: Hepatitis B virus, HepG2.2.15, HBV replication assay (BDNA assay), HepG2.2.15 cells; read-out: DNA EC50

Row | SMILES | EC50
14 | C[C@@H]1Cc2nn3c(c2CN1C(=O)Nc1ccc(F)c(C#N)c1)C(=O)N(C)OC(COCC(F)F)C3 (stereo in doubt) [Compound 124_D1, (4S*,9R)—N-(3-cyano-4-fluorophenyl)-4-((2,2-difluoroethoxy)methyl)-2,9-dimethyl-1-oxo-1,4,5,8,9,11-hexahydropyrido[4′,3′:3,4]pyrazolo[5,1-d][1,2,5]oxadiazepine-10(2H)-carboxamide] | 1 to 100 nM
15 | Cc1cc(NC(=O)N2Cc3c(nn4c3C(=O)N(C)OC(COCC(F)F)C4)C[C@H]2C)ccc1F (stereo in doubt) [Compound 125_D1, (4S*,9R)-4-((2,2-difluoroethoxy)methyl)-N-(4-fluoro-3-methylphenyl)-2,9-dimethyl-1-oxo-1,4,5,8,9,11-hexahydropyrido[4′,3′:3,4]pyrazolo[5,1-d][1,2,5]oxadiazepine-10(2H)-carboxamide] | 1 to 100 nM
16 | C[C@@H]1Cc2nn3c(c2CN1C(=O)Nc1cc(Cl)c(F)cc1F)C(=O)N(C)OC(COCC(F)F)C3 (stereo in doubt) [Compound 127_D2, (4R*,9R)—N-(5-chloro-2,4-difluorophenyl)-4-((2,2-difluoroethoxy)methyl)-2,9-dimethyl-1-oxo-1,4,5,8,9,11-hexahydropyrido[4′,3′:3,4]pyrazolo[5,1-d][1,2,5]oxadiazepine-10(2H)-carboxamide] | 1 to 100 nM
17 | C[C@@H]1Cc2nn3c(c2CN1C(=O)Nc1ccc(F)c(Cl)c1F)C(=O)N(C)OC(C(=O)N(C)CC(F)F)C3 (stereo in doubt) [Compound 152_D2, (4R*,9R)—N10-(3-chloro-2,4-difluorophenyl)-N4-(2,2-difluoroethyl)-N4,2,9-trimethyl-1-oxo-1,4,5,8,9,11-hexahydropyrido[4′,3′:3,4]pyrazolo[5,1-d][1,2,5]oxadiazepine-4,10(2H)-dicarboxamide] | 1 to 100 nM
18 | CNC(=O)C1Cn2nc3c(c2C(=O)N(C)O1)CN(C(=O)Nc1ccc(F)c(C#N)c1F)[C@H](C)C3 (stereo in doubt) [Compound 156_D2, (4R*,9R)—N10-(3-cyano-2,4-difluorophenyl)-N4,2,9-trimethyl-1-oxo-1,4,5,8,9,11-hexahydropyrido[4′,3′:3,4]pyrazolo[5,1-d][1,2,5]oxadiazepine-4,10(2H)-dicarboxamide] | 1 to 100 nM
19 | C[C@@H]1Cc2nn3c(c2CN1C(=O)Nc1ccc(F)c(C#N)c1)C(=O)N(C)OC(CNCC(F)F)C3 (stereo in doubt) [Compound 183_D1, (4S*,9R)—N-(3-cyano-4-fluorophenyl)-4-(((2,2-difluoroethyl)amino)methyl)-2,9-dimethyl-1-oxo-1,4,5,8,9,11-hexahydropyrido[4′,3′:3,4]pyrazolo[5,1-d][1,2,5]oxadiazepine-10(2H)-carboxamide] | 1 to 100 nM
20 | C[C@@H]1Cc2nn3c(c2CN1C(=O)Nc1ccc(F)c(Br)c1)C(=O)N(C)OC(CNCC(F)F)C3 (stereo in doubt) [Compound 184_D1, (4S*,9R)—N-(3-bromo-4-fluorophenyl)-4-(((2,2-difluoroethyl)amino)methyl)-2,9-dimethyl-1-oxo-1,4,5,8,9,11-hexahydropyrido[4′,3′:3,4]pyrazolo[5,1-d][1,2,5]oxadiazepine-10(2H)-carboxamide] | 1 to 100 nM
21 | Cc1cc(NC(=O)N2Cc3c(nn4c3C(=O)N(C)OC(CNCC(F)F)C4)C[C@H]2C)ccc1F (stereo in doubt) [Compound 185_D1, (4S*,9R)-4-(((2,2-difluoroethyl)amino)methyl)-N-(4-fluoro-3-methylphenyl)-2,9-dimethyl-1-oxo-1,4,5,8,9,11-hexahydropyrido[4′,3′:3,4]pyrazolo[5,1-d][1,2,5]oxadiazepine-10(2H)-carboxamide] | 1 to 100 nM

From patent publication US10987359B2, “Oxadiazepinone derivatives and methods of treating hepatitis B infections” (priority 2016, dated 2021)
